The test system of one data set is HT1080 xenograft tumor. As to the kind of experiment: HT1080 xenograft tumor mouse model, antitumor efficacy and safety. Particulars: 30 mg/kg IP once daily. The data set is classed as in vivo. How it is done: Motivated by the aforementioned in vitro findings, we subsequently sought to evaluate the in vivo antitumor efficacy of GDAz‐3 using an HT1080 xenograft tumor mouse model. The tumor‐bearing mice were randomly divided into six groups, minimizing weight and tumor size differences among the groups (n = 6 in each group). The treatment group mice were administered once daily by intraperitoneal injection (IP) with GDAz‐3 at a dosage of 30 or 60 mg kg^−1, while the control group animals were treated with the corresponding solvent, ML162, and apoptozole at a dosage of 30 mg kg^−1. Additionally, we set up a drug combination group to confirm the superiority of GDAz‐3. After treatment for 17 days, animals were humanely euthanized and the tumors were excised (Figure 7B). […] The advantage of the safety of GDAz‐3 was also determined by the hematoxylin and eosin (H&E) staining. […] In general, compared with the single inhibitor or their combination, the in vivo antitumor study confirmed the efficacy and safety of GDAz‐3.
The experimental procedures of the animal experiments were permitted by the Hangzhou Institute of Medicine (HIM), Chinese Academy of Sciences (AP2024‐07‐0010). Male BALB/c nude mice (6 weeks old) were housed under pathogen‐free conditions, maintained at a constant room temperature, and fed standard rodent chow and water. An HT1080 fibrosarcoma xenograft model in nude mice was established through subcutaneous transplantation. When the tumors emerged, the mice were randomly divided into six groups with six mice in each group: GDAz‐3‐treated at 30 or 60 mg kg^−1 group and control groups, including the vehicle group, and each of the two inhibitor‐treated groups (ML162 and apoptozole) at 30 mg kg^−1, and their combinations. The mice were intraperitoneally (IP) injected daily according to their body weight. Body weight and tumor size were measured every other day, and the tumor volume and body weight were recorded every other day after drug treatment. After treatment, the animals were euthanized by cervical dislocation, and the tumor bulks were peeled off and weighed. The organ tissues (tumor, heart, liver, spleen, lung, and kidney) were harvested and fixed with 4% paraformaldehyde for hematoxylin‐eosin (H&E) and immunohistochemistry (IHC) staining. In addition, the expression of GPX4 in tumor samples was analyzed in vehicle‐ and GDAz‐3‐treated groups by western blot assay.

Data set [1] relates to HT1080 cells. Briefly: Cell viability CCK-8 assay. The data set is classed as cell-based, human. The settings on record: CCK-8, 48 h, read-out: IC50 (cytotoxicity). How it is done: To determine whether GPX4 degradation following treatment with HSP70‐PROTACs triggers cancer cell ferroptosis, we initially assessed the viability of HT1080 cells using the CCK‐8 assay after treatment with various concentrations of the tested compounds for 48 h. GPX4 inhibitor ML162, HSP70 inhibitor apoptozole, and two GPX4 non‐degradable HSP70‐PROTAC molecules, GDAz‐Neg1 and GDAz‐Neg2, were selected as controls. […] This remarkable activity might partly be ascribed to the high cell permeability conferred by the piperazine ring. […] We speculated that the potent anti‐proliferative activity of GDAz‐Neg2 may be attributed to the GPX4 inhibition.
The compounds under investigation were initially dissolved in dimethyl sulfoxide (DMSO) to generate stock solutions with a concentration of 10 mM. HT1080 cells or other tested cells were seeded in 96‐well plates at a density of 3000–5000 cells well^−1 and cultured at 37 °C. Following a 24‐h incubation period, the tested compounds were added to the wells at various concentrations (the DMSO stock solutions of all the tested compounds were diluted with culture medium to obtain the designated concentration containing a final concentration of DMSO less than 0.5% (v/v)). The cells were then cultured for an additional 48 or 72 h. Cell Counting Kit 8 (CCK‐8) assay was conducted to examine the effects of the tested compounds on cell viability, and the absorbance was measured at a wavelength of 450 nm. The IC50 values were determined utilizing GraphPad Prism software through nonlinear regression analysis. All experiments were independently repeated at least three times.
(In general: Tetrazolium dyes change colour on reduction, which living cells bring about.)

Another data set concerns the target Hsp70. Details: method as in PMID 18729127. The settings on record: cited from earlier work.
Data set [2] addresses T1, GPX4 (Homo sapiens, UniProt P36969).
T1 sequence (P36969 1-170 isoform P36969-2): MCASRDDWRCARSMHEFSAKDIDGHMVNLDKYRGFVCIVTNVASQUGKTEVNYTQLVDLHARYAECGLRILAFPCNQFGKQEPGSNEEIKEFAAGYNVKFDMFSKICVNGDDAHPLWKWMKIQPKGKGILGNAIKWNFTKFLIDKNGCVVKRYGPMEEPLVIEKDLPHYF
Briefly: GPX4 degradation by western blot in HT1080 cells. The data set is classed as cell-based. Further details: determine the changes in the endogenous levels of GPX4 by western blot assay; endogenous in cells; host or cells: HT1080 fibrosarcoma cells, including siRNA-knockdown derivatives. The settings on record: HT1080 cells, 0.3 µM, 24 h (Figure 3A). Here is the method:
To evaluate the GPX4 degradation efficiency of the synthesized HSP70‐PROTACs GDAz‐1–14, we first selected ferroptosis‐sensitive HT1080 fibrosarcoma cells (highly‐expressing GPX4) treated with different concentrations (0.1, 0.3, 1, and 3 µM) of these chimeras to determine the changes in the endogenous levels of GPX4 by western blot assay after 24 h treatment. […] This finding underscores the crucial role of the linker in HSP70‐PROTAC‐mediated protein degradation. […] In the case of alkyl chain derivatives (GDAz‐6–10), elongating the length of the linker generally led to a decreased GPX4 degrading activity. […] Thus, GDAz‐3 was selected for further evaluation.
(§1) Cells were seeded at a density of 4 × 10^5 cells well^−1 in 6‐well plates and allowed to incubate overnight. Cells were incubated with the indicated treatments. Thereafter, the cells were collected and lysed with RIPA buffer containing serine protease and phosphatase inhibitors for 30 min on ice. Proteins were quantified by using a BCA protein assay kit (Beyotime). Subsequently, SDS‐PAGE sample loading buffer was added, and the mixture was heated in a 100 °C metal bath for 10 min to denature the proteins. Protein samples from each group were separated by SDS‐PAGE gel and transferred to a PVDF membrane. After blocking with 5% skim milk for 1 h at room temperature, primary antibodies (GPX4: abcam (#ab125066, 1:1000); Hsp70: abcam (#ab2787, 1:1000); CHIP: HUABIO (#ST7108, 1:1000); UpingBio Technology Co., Ltd. (BRD4, #YP‐Ab‐18034, 1:1000; BAG‐1, #YP‐Ab‐00575, 1:1000); GAPDH: Proteintech (#60004‐1‐Ig, 1:50 000)) were used and incubated at 4 °C overnight on a rotary shaker. After washing the membranes with TBST buffer five times, the membranes were incubated with a second antibody (Cell Signaling Technology, #7074S, 1:1000 and #7076S, 1:1000) at room temperature for 2 h. Ultimately, the membrane was washed five times, and the antibody‐protein complexes were visualized using an ECL luminescence reagent (Biosharp, Shanghai, China). The relative intensities of the bands were analyzed by ImageJ and normalized to a loading control.
On the technique in general: Immunoblotting shows a protein as a band on a membrane.

A further data set deals with Hsc70. Further details: method as in PMID 18729127. Particulars: cited from earlier work.
For data set [3], the target named is T1, GPX4. As to the kind of experiment: GPX4 degradation by western blot in 786-O cells. Format: cell-based. Further details: endogenous in cells; host or cells: 786-O. Particulars: up to 10 µM, 24 h; sentence reads 'neither ... nor ... induced any degradation effect' = no degradation.
Text: As previously mentioned, drug resistance and limited application scope are the significant challenges of traditional PROTAC, due partly to CRBN/VHL mutations or low expression. In this study, we investigated whether the developed HSP70‐PROTAC could address these challenges. Specifically, we examined the developed HSP70‐PROTAC in scenarios where VHL‐ or CRBN‐based PROTACs are ineffective due to intrinsic or acquired resistance. Several previously reported representative GPX4‐targeting degraders, including dGPX4 (CRBN‐based PROTAC, Figure 1A), 8e (VHL‐based PROTAC, Figure 1B), and GDCNF‐11/2 (HSP90‐based HIM‐PROTAC, Figure 1C, the structure of the GDCNF‐11 derivative GDCNF‐2 was not shown) were selected as control agents.^[ [18], [23], [28] ^] […] The clear cell renal cell carcinoma (ccRCC) 786‐O cell line is a well‐established cancer cell model characterized by an intrinsic deficiency in VHL expression.^[ [43], [44], [45] ^] We also confirmed this characteristic through evaluating the VHL expression levels in several randomly selected cancer cell lines (Figure S10A, Supporting Information). We further selected 786‐O cells as a model to confirm whether HSP70‐PROTAC could be used in such cases as an alternative to VHL‐based degraders, because VHL‐based PROTACs cannot be used to treat kidney cancer with a mutation or deletion in the VHL gene.
as §1

Data set [4] has as its target T1, GPX4. Further details: determine the changes in the endogenous levels of GPX4 by western blot assay; endogenous in cells; host or cells: HT1080 fibrosarcoma cells, including siRNA-knockdown derivatives; method as in PMID 39230973. The settings on record: cited from earlier work.
Data set [5] deals with HT1080 cells. Details: method as in PMID 39230973. The settings on record: same experimental conditions, cited from earlier work.
The next data set deals with ferroptosis. Further details: method as in PMID 34506134, PMID 35648631. Particulars: cited from earlier work.

Data on three compounds can be found in paper PMC12948223, “HSP70 Interactome‐Mediated Proteolysis Targeting Chimera (HSP70‐PROTAC) for Ferroptosis‐Driven Cancer Treatment” (Advanced Science, 2025).

Where two headings read alike, the source gives them in different places.

Broadly, the IC50 is the point on the concentration scale where inhibition reaches its midpoint. The term Kd denotes the concentration at which binding is half-saturated. Turning to `COc1ccc(-c2nc(-c3cc(C(F)(F)F)cc(C(F)(F)F)c3)n(Cc3ccc(C(N)=O)cc3)c2-c2ccc(OC)cc2)cc1` [Apoptozole, reference compound], in the data set on HT1080 xenograft tumor, the “Toxic effects during treatment” value was “serious toxic effects such as death”. Also, the IC50 in the data set with HT1080 cells [1] turned out to be 17000 nM. For the same compound, the Kd on Hsp70 is 140 nM; at Hsc70, 210 nM. The GPX4 degradation entry at GPX4 [2] is listed as “this degradation effect was not observed”.
As for `COc1c(C)cnc(Cn2cnc3c(NCCC4CCN(C(=O)Cn5cc(COc6ccc(N(C(=O)CCl)C(C(=O)NCCc7ccccc7)c7cccs7)cc6Cl)nn5)CC4)nc(N)nc32)c1C` (stereo not shown) [GDCNF-11], the “GPX4 degradation in 786-O cells” value at GPX4 [3] was “induced any degradation effect”. In addition, the “Onset of GPX4 protein degradation” value on GPX4 [4] is listed as “initiating GPX4 protein degradation after 12 h”. The IC50 with HT1080 cells [5] (read-out: IC50 (antiproliferative activity)) is 790 nM. The Ferroptosis selectivity index entry with HT1080 cells [5] was “about 45 fold”.
As for `COC(=O)c1ccc([C@@H]2c3[nH]c4ccccc4c3C[C@@H](C(=O)OC)N2C(=O)CCl)cc1` [RSL3], the “Ferroptosis selectivity (SI)” value in the data set with ferroptosis is reported as 3.1.
